Patent publication US8124629B2, “Naphthylacetic acids” (Hoffmann-La Roche Inc., priority 2008, dated 2012)

Target: T1, human CRTH2 (Homo sapiens, UniProt Q9Y5Y4)
T1 sequence (Q9Y5Y4 1-395): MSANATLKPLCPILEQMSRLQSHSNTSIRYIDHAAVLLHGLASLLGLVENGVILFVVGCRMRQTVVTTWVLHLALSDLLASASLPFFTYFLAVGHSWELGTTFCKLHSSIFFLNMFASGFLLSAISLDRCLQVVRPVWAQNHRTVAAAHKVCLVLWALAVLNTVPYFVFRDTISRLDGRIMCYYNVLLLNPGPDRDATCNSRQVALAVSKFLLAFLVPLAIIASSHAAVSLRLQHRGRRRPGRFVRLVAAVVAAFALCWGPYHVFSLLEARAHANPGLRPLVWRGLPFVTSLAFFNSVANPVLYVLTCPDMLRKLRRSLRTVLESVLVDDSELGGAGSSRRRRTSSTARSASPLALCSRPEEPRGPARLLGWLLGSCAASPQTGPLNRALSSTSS
Assay: Human CRTH2 Receptor Binding Assay (whole cell, [3H]ramatroban)
Design: expressed in transfected cells; host or cells: CHO-K1
Details: CHO-K1 cells expressing human CRTH2 and G-alpha16; 20 nM [3H]ramatroban; 1 hour, room temperature
Source text: A whole cell receptor binding assay using [^3H]ramatroban as the competing radioactive ligand was employed to evaluate the compound binding activity to human CRTH2. The radioactive ligand [^3H]ramatroban was synthesized according to Sugimoto et. al. (Eur. J. Pharmacol. 524, 30-37, 2005) to a specific activity of 42 Ci/mmol.
A cell line stably expressing human CRTH2 was established by transfecting CHO-K1 cells with two mammalian expression vectors that harbored human CRTH2 and G-alpha16 cDNAs, respectively, using FuGene® 6 transfection reagent (from Roche). Stable clones expressing CRTH2 were selected by staining each clone with BM16 (BD Pharmingen™ from BD Biosciences, a division of Becton, Dickinson and Company), which is a rat monoclonal antibody to human CRTH2. The cells were maintained as monolayer cultures in Ham's F-12 medium containing 10% fetal bovine serum, 100 units/mL penicillin, 100 μg/mL streptomycin, 2 mM glutamine, 0.5 mg/mL G418 (geneticin) for CRTH2, and 0.2 mg/mL hygromycin-B (for G-alpha 16). For whole cell receptor binding assay, the monolayer cells were rinsed once with PBS (phosphate buffered saline), dissociated using ethylenediaminetetraacetate (Versene™ EDTA from Lonza Inc.), and suspended in PBS containing 10 mM MgCl2 and 0.06% BSA (bovine serum albumin) at 1.5×10^6 cells/mL.
The binding reactions (0.2 mL) were performed in 96-well plates at room temperature in PBS containing 1.5×10^5 cells, 10 mM MgCl2, 0.06% BSA, 20 nM [^3H]ramatroban, and test compound at various concentrations. After 1 hour of binding reactions, the cells were harvested on GF™/B filter microplates (microtiter plates with embedded glass fiber from Perkin Elmer, Inc.) and washed 5 times with PBS using a Filtermate™ Harvester (a cell harvester that harvests and washes cells from microplates from PerkinElmer, Inc.). The radioactivities bound to the cells were determined using a microplate scintillation counter (TopCount® NXT, from PerkinElmer, Inc.) after adding 50 μL of Microscint™ 20 scintillation fluid (from PerkinElmer, Inc.) to each well of the filter plates. The radioactivity from non-specific binding was determined by replacing compound with 10 μM of 15(R)-15-methyl PGD2 (from Cayman Chemical Company) in the reaction mixtures. The radioactivity bound to the cells in the absence of compound (total binding) was determined by replacing compound with 0.25% of DMSO (dimethyl sulfoxide) in the reaction mixture. Specific binding data were obtained by subtracting the radioactivity of non-specific binding from each binding data.
The IC50 value is defined as the concentration of the tested compound that is required for 50% inhibition of total specific binding. In order to calculate the IC50 value, the percent inhibition data were determined for 7 concentrations for each compound. The percent inhibition for a compound at each concentration was calculated according to the following formula, [1-(specific binding in the presence of compound)/(total specific binding)]×100. The IC50 value was then obtained by fitting the percent inhibition data to a sigmoidal dose-response (4 parameter logistic) model in the XLfit® software Excel add-in program [from ID Business Solutions Ltd., model 205, where F(x)=(A+(B−A)/(1+((C/×)^D)))].

| Structure (SMILES) | IC50 |
| --- | --- |
| NS(=O)(=O)c1ccc(C(=O)c2cc(CC(=O)O)cc3ccccc23)cc1 [Example 1-3, [4-(4-Sulfamoyl-benzoyl)-naphthalen-2-yl]-acetic acid] | 336 nM |
| CS(=O)(=O)c1ccc(C(=O)c2cc(CC(=O)O)cc3ccc(Cl)cc23)cc1 [Example 2-27, [6-Chloro-4-(4-methanesulfonyl-benzoyl)-naphthalen-2-yl]-acetic acid] | 6.4 nM |
| Cc1c(CC(=O)O)cc2ccc(F)cc2c1Cc1ccc(Br)cc1 [Example 10-4, [4-(4-Bromo-benzyl)-6-fluoro-3-methyl-naphthalen-2-yl]-acetic acid] | 24 nM |
| O=C(O)Cc1cc(C(=O)c2ccc(S(=O)(=O)N3CCCCC3)cc2)c2cc(F)ccc2c1 [Example 2-21, {6-Fluoro-4-[4-(piperidine-1-sulfonyl)-benzoyl]-naphthalen-2-yl}-acetic acid] | 3.8 nM |
| CNS(=O)(=O)c1ccc(Cc2cc(CC(=O)O)cc3ccc(F)cc23)cc1 [Example 9-1, [6-Fluoro-4-(4-methylsulfamoyl-benzyl)-naphthalen-2-yl]-acetic acid] | 3.2 nM |
| O=C(O)Cc1cc(C(=O)c2ccc(S(=O)(=O)N3CCN(c4ccccc4F)CC3)cc2)c2cc(F)ccc2c1 [Example 2-26, (6-Fluoro-4-{4-[4-(2-fluoro-phenyl)-piperazine-1-sulfonyl]-benzoyl}-naphthalen-2-yl)-acetic acid] | 7 nM |
| Cc1c(CC(=O)O)cc2ccc(F)cc2c1Cc1ccccc1S(=O)(=O)c1ccccc1 [Example 14-1] | 5.4 nM |
| CNS(=O)(=O)c1ccc(C(=O)c2cc(CC(=O)O)cc3ccc(F)cc23)cc1 [Example 2-15, [6-Fluoro-4-(4-methylsulfamoyl-benzoyl)-naphthalen-2-yl]-acetic acid] | 3.3 nM |
| Cc1c(CC(=O)O)cc2ccc(F)cc2c1Cc1cccc(S(C)(=O)=O)c1 [Example 10-2, [6-Fluoro-4-(3-methanesulfonyl-benzyl)-3-methyl-naphthalen-2-yl]-acetic acid] | 54 nM |
| O=C(O)Cc1cc(C(=O)c2ccc(S(=O)(=O)c3cccc(Cl)c3)cc2)c2cc(F)ccc2c1 [Example 1-5, {4-[4-(3-Chloro-benzenesulfonyl)-benzoyl]-6-fluoro-naphthalen-2-yl}-acetic acid] | 6.2 nM |
| CS(=O)(=O)c1ccc(C(=O)c2cc(CC(=O)O)cc3ccccc23)cc1 [Example 2-3, [4-(4-Methanesulfonyl-benzoyl)-naphthalen-2-yl]-acetic acid] | 17 nM |
| Cc1c(CC(=O)O)cc2ccc(Cl)cc2c1Cc1ccc(S(C)(=O)=O)cc1 [Example 10-12, [6-Chloro-4-(4-methanesulfonyl-benzyl)-3-methyl-naphthalen-2-yl]-acetic acid] | 10 nM |
| CS(=O)(=O)c1ccc(Cc2cc(CC(=O)O)cc3ccc(C(F)(F)F)cc23)cc1 [Example 8-2, [4-(4-Methanesulfonyl-benzyl)-6-trifluoromethyl-naphthalen-2-yl]-acetic acid] | 15.3 nM |
| Cc1c(CC(=O)O)cc2ccc(F)cc2c1Cc1ccc(SCc2ccccc2)cc1 [Example 10-11, [4-(4-Benzylsulfanyl-benzyl)-6-fluoro-3-methyl-naphthalen-2-yl]-acetic acid] | 3.5 nM |

Now from value to compound:

| IC50 | Structure (SMILES) |
| --- | --- |
| 5.7 nM | CS(=O)(=O)c1ccc(C(F)(F)c2cc(CC(=O)O)cc3ccc(F)cc23)c(Cl)c1 [Example 17-1, {4-[(2-Chloro-4-methanesulfonyl-phenyl)-difluoro-methyl]-6-fluoro-naphthalen-2-yl}-acetic acid] |
| 17.4 nM | CCS(=O)(=O)c1ccc(C(O)c2cc(CC(=O)O)cc3ccc(F)cc23)cc1 (stereo not drawn) [Example 16-7, {4-[(4-Ethanesulfonyl-phenyl)-hydroxy-methyl]-6-fluoro-naphthalen-2-yl}-acetic acid] |
| 8 nM | CS(=O)(=O)c1ccc(C(O)c2cc(CC(=O)O)cc3ccc(F)cc23)cc1 (stereo not drawn) [Example 16-5, {6-Fluoro-4-[hydroxy-(4-methanesulfonyl-phenyl)-methyl]-naphthalen-2-yl}-acetic acid] |
| 3.9 nM | CCS(=O)(=O)c1ccc(C(F)(F)c2cc(CC(=O)O)cc3ccc(F)cc23)cc1 [Example 17-3, {4-[(4-Ethanesulfonyl-phenyl)-difluoro-methyl]-6-fluoro-naphthalen-2-yl}-acetic acid] |
| 32.8 nM | Cc1c(CC(=O)O)cc2ccc(F)cc2c1Cc1ccc(F)cc1 [Example 15-3, [6-Fluoro-4-(4-fluoro-benzyl)-3-methyl-naphthalen-2-yl]-acetic acid] |
| 18.9 nM | CCS(=O)(=O)c1ccc(C(O)c2cc(CC(=O)O)cc3ccc(F)cc23)c(C)c1 (stereo not drawn) [Example 16-8, {4-[(4-Ethanesulfonyl-2-methyl-phenyl)-hydroxy-methyl]-6-fluoro-naphthalen-2-yl}-acetic acid] |

Target: T1, human CRTH2
Assay: Calcium Flux Assay Using Fluorometric Imaging Plate Reader (FLIPR)
Format: cell-based
Design: expressed in transfected cells; host or cells: CHO-K1 (previously transfected with G-alpha 16)
Details: CHO-K1 cells with G-alpha 16 and human CRTH2; inhibition of ligand (DK-PGD2) induced Ca2+ flux; read-out: FLIPR assay IC50 (exceptions, greater than 3)
Method: CHO-K1 cells previously transfected with G-alpha 16 were subsequently transfected with the human CRTH2 receptor and the neomycin resistance gene. Following selection in 800 μg/mL G418 (geneticin), individual clones were assayed for their receptor expression based on staining with an anti human CRTH2 IgG, followed by assaying for their response to 13,14-dihydro-15-keto Prostaglandin D2 (DK-PDG2) (ligand) in the Ca^2+Flux assay. Positive clones were then cloned by limiting dilution cloning. The transfected cells were cultured in Ham's F-12 medium supplemented with 10% fetal bovine serum, 2 mM glutamine , 100 U/mL penicillin/100 μg/mL streptomycin, 200 μg/mL hygromycin B, and 800 μg/mL G418 (geneticin). Cells were harvested with trypsin-EDTA (trypsin-ethylenediaminetetraacetic acid) and counted using ViaCount® reagent (from Guava Technologies, Inc. which contains two DNA-binding dyes that enable the reagent user to distinguish between viable and non-viable cells). The cell suspension volume was adjusted to 2.5×10^5 cells /mL with complete growth media. Aliquots of 50 μL were dispensed into BD Falcon™ 384 well black/clear microplates (from BD Biosciences, a division of Becton, Dickinson and Company) and the microplates were placed in a 37° C. CO2 incubator overnight. The following day, the microplates were used in the assay.
Loading Buffer containing dye (from the FLIPR® Calcium 3 Assay Kit from Molecular Devices, a division of MDS Analytical Technologies and MDS Inc.) was prepared by dissolving the contents of one bottle into 200 mL Hank's Balanced Salt Solution containing 20 mM HEPES (4-(2-hydroxyethyl)-1-piperazineethanesulfonic acid) and 2.5 mM probenecid. Growth media was removed from the cell plates and 25 μL of Hank's Balanced Salt Solution (HBSS) containing 20 mM HEPES, 0.05% BSA and 2.5 mM probenecid was added to each well followed by 25 μL of diluted dye using a Multidrop dispenser. The plates were then incubated for 1 hour at 37° C.
During the incubation, test compound plates were prepared by adding 90 μL of HBSS/20 mM HEPES/0.005% BSA buffer to the 2 μL of serial diluted compounds. To prepare serial diluted compounds, 20 mM stocks of compounds were dissolved in 100% DMSO. The compound dilution plate was set up as follows: well #1 received 5 μL of compound plus 10 μL of DMSO. Wells 2-10 received 10 μL of DMSO. 5 μL was mixed and transferred from well #1 into well #2. 1:3 serial dilutions were continued out 10 steps. 2 μL of diluted compound was transferred into duplicate wells of a 384 well “assay plate” and then 90 μL of buffer was added.
After incubation, both the cell and “assay plate” plates were brought to the fluorometric imaging plate reader (FLIPR®) and 20 μL of the diluted compounds were transferred to the cell plates by the FLIPR®. Plates were then incubated for 1 hour at room temperature. After the 1 hour incubation, plates were returned to the FLIPR® and 20 μL of 4.5× concentrated ligand was added to the cell plates. During the assay, fluorescence readings were taken simultaneously from all 384 wells of the cell plate every 1.5 seconds. Five readings were taken to establish a stable baseline, then 20 μL of sample was rapidly (30 μL/sec) and simultaneously added to each well of the cell plate. The fluorescence was continuously monitored before, during and after sample addition for a total elapsed time of 100 seconds. Responses (increase in peak fluorescence) in each well following agonist addition were determined. The initial fluorescence reading from each well, prior to ligand stimulation, was used as a zero baseline value for the data from that well. The responses were expressed as % inhibition of the buffer control. […]

| IC50 | Structure (SMILES) |
| --- | --- |
| > 3000 nM | NS(=O)(=O)c1ccc(C(=O)c2cc(CC(=O)O)cc3ccccc23)cc1 [Example 1-3, [4-(4-Sulfamoyl-benzoyl)-naphthalen-2-yl]-acetic acid] |
